Measured values reported in patent US10307413B2, “Tetrahydro- and dihydro-isoquinoline PRMT5 inhibitors and uses thereof” (Epizyme, Inc., priority 2013, dated 2019).
Read-outs that look alike come from different tables or passages of the source.

How the values were obtained:
[1] = system: symmetric di-methyl arginine in Z-138 cells; assay: Z-138 Methylation Assay (In Cell Western for symmetric di-methyl arginine and DNA content); type: cell-based; settings: Homo sapiens, In Cell Western methylation, read-out: ICW EC50
How it was run: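 In-cell western: symmetric di-methyl arginine signal ratioed to DRAQ5 DNA content after 96 h compound exposure of Z-138 cells seeded at 50,000 cells/mL.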

[2] = molecular target: PRMT5/MEP50 (Homo sapiens (Human), UniProt O14744); assay: PRMT5 Biochemical Assay (PRMT5/MEP50 enzyme assay on peptide substrate, 3H-SAM Flashplate); settings: PRMT5 biochemical assay
How it was run: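 Radiometric methylation of a biotin-tagged H4(1-15) peptide by human PRMT5/MEP50 from baculovirus/Sf9, with ³H-SAM incorporation read on streptavidin Flashplates. Buffer: Bicine pH 7.6, TCEP, BSG, Tween20; compound preincubated 30 min at 25 °C; stopped with 600 µM final unlabeled SAM. DMSO and SAH controls; IC50 from fitted % inhibition.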

[3] = system: Z-138 cell line; assay: Z-138 Proliferation Assay (Cell Titer Glo, 5 days); type: cell-based; settings: Homo sapiens, read-out: Proliferation EC50
How it was run: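 Viability via CellTiter-Glo luminescence (ATP) after 5-day incubation at 37 °C, 5% CO2. Compounds tested in triplicate, nine 3-fold steps, highest final concentration 20 μM in 0.2% DMSO; 50% inhibitory concentration by 4-parameter fit of normalized curves.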

[4] = 120 h, Z-138 cells, 5 days, Cell Titer Glo

PRMT5/MEP50, sequence (O14744 other isoform, or with tags, fused parts or gaps): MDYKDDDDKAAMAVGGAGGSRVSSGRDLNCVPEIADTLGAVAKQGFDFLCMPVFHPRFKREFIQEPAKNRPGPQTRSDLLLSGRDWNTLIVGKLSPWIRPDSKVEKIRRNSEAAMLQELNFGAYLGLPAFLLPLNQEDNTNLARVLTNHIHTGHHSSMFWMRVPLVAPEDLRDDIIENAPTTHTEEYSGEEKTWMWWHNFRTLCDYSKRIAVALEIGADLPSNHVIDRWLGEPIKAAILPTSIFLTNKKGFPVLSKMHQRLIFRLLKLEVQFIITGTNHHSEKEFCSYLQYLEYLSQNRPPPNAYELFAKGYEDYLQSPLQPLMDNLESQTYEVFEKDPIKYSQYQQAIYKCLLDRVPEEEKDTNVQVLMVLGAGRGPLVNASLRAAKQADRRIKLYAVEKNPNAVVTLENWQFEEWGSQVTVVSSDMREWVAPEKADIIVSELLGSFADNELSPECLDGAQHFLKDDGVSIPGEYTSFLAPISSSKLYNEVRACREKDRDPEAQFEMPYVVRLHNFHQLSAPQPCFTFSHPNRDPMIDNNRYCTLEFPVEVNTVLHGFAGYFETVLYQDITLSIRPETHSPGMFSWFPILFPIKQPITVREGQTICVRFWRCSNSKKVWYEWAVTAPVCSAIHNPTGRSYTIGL
PRMT5/MEP50, sequence (Q9BQA1 other isoform, or with tags, fused parts or gaps partner): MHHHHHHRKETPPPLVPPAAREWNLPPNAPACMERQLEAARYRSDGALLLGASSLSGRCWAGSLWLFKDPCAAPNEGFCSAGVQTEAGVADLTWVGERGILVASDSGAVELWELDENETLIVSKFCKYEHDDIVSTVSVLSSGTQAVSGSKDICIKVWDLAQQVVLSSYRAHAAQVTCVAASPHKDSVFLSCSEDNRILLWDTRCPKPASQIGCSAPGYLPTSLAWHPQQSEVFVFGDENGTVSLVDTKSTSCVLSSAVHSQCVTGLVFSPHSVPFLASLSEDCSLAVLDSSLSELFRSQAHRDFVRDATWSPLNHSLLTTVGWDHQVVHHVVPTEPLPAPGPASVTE

| SMILES | EC50 [1] [µM] | IC50 [2] [µM] | EC50 [3, 4] [µM] | EC50 ([3]; Z-138, 120 h) [µM] |
| --- | --- | --- | --- | --- |
| NC(=O)CN1CC(Nc2cc(C(=O)NC[C@H](O)CN3CCc4ccccc4C3)ncn2)C1 [Compound 621] | 1 to 10 | < 0.1 | 1 to 10 | – |
| CNC(=O)CN1CC(Nc2cc(C(=O)NC[C@H](O)CN3CCc4ccccc4C3)ncn2)C1 [Compound 622] | 1 to 10 | < 0.1 | 1 to 10 | – |
| CO[C@H]1CC[C@@H](Nc2cc(C(=O)NC[C@H](O)CN3CCc4ccccc4C3)ncn2)CC1 [Compound 624] | < 0.1 | < 0.1 | < 0.1 | – |
| O=C(NC[C@H](O)CN1CCc2ccccc2C1)c1cnnc(OC2CCN(CC(F)(F)F)CC2)c1 [Compound 626] | 0.101 to 1 | 0.101 to 1 | 1 to 10 | – |
| COc1cc(C(=O)NC[C@H](O)CN2CCc3ccccc3C2)cc(NC2CCN(C(C)=O)CC2)n1 [Compound 627] | < 0.1 | < 0.1 | < 0.1 | – |
| CC(=O)N1CCC(Nc2cc(C(=O)NC[C@H](O)CN3CCc4ccccc4C3)cc(OCCN(C)C)n2)CC1 [Compound 628] | < 0.1 | < 0.1 | < 0.1 | – |
| CC(=O)N1CC(Nc2cc(C(=O)NC[C@H](O)CN3CCc4ccccc4C3)cnn2)C1 [Compound 629] | 0.101 to 1 | < 0.1 | 1 to 10 | – |
| CN[C@H]1CC[C@@H](Nc2cc(C(=O)NC[C@H](O)CN3CCc4ccccc4C3)ncn2)CC1 [Compound 630] | 0.101 to 1 | < 0.1 | > 5 | – |
| CCN(C)[C@H]1CC[C@@H](Nc2cc(C(=O)NC[C@H](O)CN3CCc4ccccc4C3)ncn2)CC1 [Compound 631] | 0.101 to 1 | < 0.1 | > 5 | – |
| CC(=O)N(C)[C@H]1CC[C@@H](Nc2cc(C(=O)NC[C@H](O)CN3CCc4ccccc4C3)ncn2)CC1 [Compound 632] | < 0.1 | < 0.1 | 0.101 to 1 | – |
| O=C(NC[C@H](O)CN1CCc2ccccc2C1)C1=CC2=N[C@@H](CO)CN2C=N1 [Compound 634] | > 1 | 0.101 to 1 | > 5 | – |
| CC(=O)N1CC(Nc2ccnc(C(=O)NC[C@H](O)CN3CCc4ccccc4C3)c2)C1 [Compound 635] | < 0.1 | < 0.1 | < 0.1 | – |
| O=C(NC[C@H](O)CN1CCc2ccccc2C1)c1cc(NC2CN(C(=O)C3CC3)C2)ccn1 [Compound 636] | < 0.1 | < 0.1 | < 0.1 | – |
| O=C(NC[C@H](O)CN1CCc2ccccc2C1)c1cc(N[C@H]2C[C@@H](N3CCOCC3)C2)ncn1 [Compound 637] | < 0.1 | < 0.1 | 0.101 to 1 | – |
| O=C(NC[C@H](O)CN1CCc2ccccc2C1)c1cc(NC2CCN(C(=O)C3CC3)CC2)ccn1 [Compound 638] | < 0.1 | < 0.1 | < 0.1 | – |
| CSCCN1CCC(Nc2cc(C(=O)NC[C@H](O)CN3CCc4ccccc4C3)ncn2)CC1 [Compound 639] | < 0.1 | < 0.1 | 1 to 10 | – |
| CCS(=O)(=O)CCN1CCC(Nc2cc(C(=O)NC[C@H](O)CN3CCc4ccccc4C3)ncn2)CC1 [Compound 640] | < 0.1 | < 0.1 | – | 0.101 to 1 |
| CCS(=O)(=O)CCNc1cc(C(=O)NC[C@H](O)CN2CCc3ccccc3C2)ncn1 [Compound 641] | < 0.1 | < 0.1 | 1 to 10 | – |
| CC(=O)N1CC[C@@H](Nc2cc(C(=O)NC[C@H](O)CN3CCc4ccccc4C3)ncn2)C1 [Compound 642] | < 0.1 | < 0.1 | 0.101 to 1 | – |
| CC(O)(CNC(=O)c1cc(NC2COC2)ncn1)CN1CCc2ccccc2C1 (stereo not drawn) [Compound 646] | 0.101 to 1 | 0.101 to 1 | > 20 | – |
| CC(O)(CNC(=O)c1cc(NC2CCNCC2)ncn1)CN1CCc2ccccc2C1 (stereo not drawn) [Compound 647] | > 1 | 1 to 10 | > 5 | – |
| CN1CCC(Nc2cc(C(=O)NCC(C)(O)CN3CCc4ccccc4C3)ncn2)CC1 (stereo not drawn) [Compound 648] | > 1 | 1 to 10 | > 5 | – |
| CC(=O)N1CCC(Nc2cc(C(=O)NCC(C)(O)CN3CCc4ccccc4C3)ncn2)CC1 (stereo not drawn) [Compound 649] | < 0.1 | < 0.1 | 1 to 10 | – |
| CC(O)(CNC(=O)c1cc(NC2CCN(C(=O)C3CC3)CC2)ncn1)CN1CCc2ccccc2C1 (stereo not drawn) [Compound 650] | < 0.1 | < 0.1 | 1 to 10 | – |
| O=C(NCCCN1CCc2ccccc2C1)c1cc(NC2COC2)ncn1 [Compound 651] | > 1 | 0.101 to 1 | > 5 | – |
| CC(=O)N1CC(Nc2cc(C(=O)NCCCN3CCc4ccccc4C3)ncn2)C1 [Compound 652] | 0.101 to 1 | < 0.1 | > 5 | – |

| SMILES | EC50 [1] [µM] | IC50 [2] [µM] | EC50 [3, 4] [µM] | EC50 ([3]; Z-138, 120 h) [µM] |
| --- | --- | --- | --- | --- |
| CC(=O)N1CCC(Nc2cc(C(=O)NCCCN3CCc4ccccc4C3)ncn2)CC1 [Compound 653] | < 0.1 | < 0.1 | 1 to 10 | – |
| CC(=O)N1CCC(Nc2cc(C(=O)NCCCN3CCc4ccccc4C3)ccn2)CC1 [Compound 654] | < 0.1 | < 0.1 | 1 to 10 | – |
| CC(=O)N1CC(Nc2cc(C(=O)NCC(F)CN3CCc4ccccc4C3)ncn2)C1 (stereo not drawn) [Compound 655] | 0.101 to 1 | 0.101 to 1 | > 5 | – |
| CC(=O)N1CCC(Nc2cc(C(=O)NCC(F)CN3CCc4ccccc4C3)ncn2)CC1 (stereo not drawn) [Compound 656] | 0.101 to 1 | 0.101 to 1 | > 5 | – |
| CC(CNC(=O)c1cc(NC2COC2)ncn1)CN1CCc2ccccc2C1 (stereo not drawn) [Compound 657] | < 0.1 | < 0.1 | > 5 | – |
| CC(=O)N1CCC(Nc2cc(C(=O)NCC(C)CN3CCc4ccccc4C3)ncn2)CC1 (stereo not drawn) [Compound 658] | < 0.1 | < 0.1 | 0.101 to 1 | – |
| CC(=O)N1CC(Nc2cc(C(=O)NCC(C)CN3CCc4ccccc4C3)ncn2)C1 (stereo not drawn) [Compound 659] | < 0.1 | < 0.1 | 0.101 to 1 | – |
| CC(=O)N1CCC(Nc2cc(C(=O)NCC(C)CN3CCc4ccccc4C3)ccn2)CC1 (stereo not drawn) [Compound 660] | < 0.1 | < 0.1 | 0.101 to 1 | – |
| CN[C@H]1CC[C@H](Nc2cc(C(=O)NC[C@H](O)CN3CCc4ccccc4C3)ncn2)CC1 [Compound 661] | < 0.1 | < 0.1 | 0.101 to 1 | – |
| CCN(C)[C@H]1CC[C@H](Nc2cc(C(=O)NC[C@H](O)CN3CCc4ccccc4C3)ncn2)CC1 [Compound 662] | < 0.1 | < 0.1 | 0.101 to 1 | – |
| CC(=O)N1CC(Nc2cc(C(=O)NC[C@H](O)CN3CCc4cccc(C)c4C3)ncn2)C1 [Compound 663] | < 0.1 | < 0.1 | 0.101 to 1 | – |
| CC(=O)N1CCC(Nc2cc(C(=O)NC[C@H](O)CN3CCc4cccc(C)c4C3)ncn2)CC1 [Compound 664] | < 0.1 | < 0.1 | 0.101 to 1 | – |
| CC(=O)N1CCC(Nc2cc(C(=O)NC[C@H](O)CN3CCc4cccc(C)c4C3)ccn2)CC1 [Compound 665] | < 0.1 | < 0.1 | < 0.1 | – |
| Cc1ccc2c(c1)CN(C[C@@H](O)CNC(=O)c1cc(NC3COC3)ncn1)CC2 [Compound 666] | 0.101 to 1 | 0.101 to 1 | > 5 | – |
| CC(=O)N1CC(Nc2cc(C(=O)NC[C@H](O)CN3CCc4ccc(C)cc4C3)ncn2)C1 [Compound 667] | < 0.1 | 0.101 to 1 | 1 to 10 | – |
| CC(=O)N1CCC(Nc2cc(C(=O)NC[C@H](O)CN3CCc4ccc(C)cc4C3)ncn2)CC1 [Compound 668] | < 0.1 | < 0.1 | 1 to 10 | – |
| CC(=O)N1CCC(Nc2cc(C(=O)NC[C@H](O)CN3CCc4ccc(C)cc4C3)ccn2)CC1 [Compound 669] | < 0.1 | < 0.1 | 0.101 to 1 | – |
| CC(=O)N1CCC(Nc2cc(C(=O)NC[C@H](O)CN3CCc4c(C)cccc4C3)ccn2)CC1 [Compound 670] | < 0.1 | < 0.1 | 0.101 to 1 | – |
| CC(=O)N(C)[C@H]1CC[C@H](Nc2cc(C(=O)NC[C@H](O)CN3CCc4ccccc4C3)ncn2)CC1 [Compound 671] | < 0.1 | < 0.1 | < 0.1 | – |
| COCCN(C)c1cc(NC2CCN(C(C)=O)CC2)cc(C(=O)NC[C@H](O)CN2CCc3ccccc3C2)n1 [Compound 672] | < 0.1 | < 0.1 | < 0.1 | – |
| Cc1cccc2c1CN(C[C@@H](O)CNC(=O)c1cc(NC3COC3)ncn1)CC2 [Compound 673] | < 0.1 | < 0.1 | 1 to 10 | – |
| CC(=O)N1CC(Nc2cc(C(=O)NC[C@H](O)CN3CCc4cc(C)ccc4C3)ncn2)C1 [Compound 674] | < 0.1 | < 0.1 | 1 to 10 | – |
| CC(=O)N1CCC(Nc2cc(C(=O)NC[C@H](O)CN3CCc4cc(C)ccc4C3)ncn2)CC1 [Compound 675] | < 0.1 | < 0.1 | 0.101 to 1 | – |
| CC(=O)N1CC(Nc2cc(C(=O)NC[C@H](O)CN3CCc4c(C)cccc4C3)ncn2)C1 [Compound 676] | < 0.1 | < 0.1 | 1 to 10 | – |
| CC(=O)N1CCC(Nc2cc(C(=O)NC[C@H](O)CN3CCc4c(C)cccc4C3)ncn2)CC1 [Compound 677] | < 0.1 | < 0.1 | 1 to 10 | – |
